Test results reported in ChEMBL document CHEMBL3102697, “Controlled-deactivation cannabinergic ligands” (J Med Chem, 2013).
pEC50, pKi: −log10 of the molar value. The source made the active and inactive calls. The calls are words filed in the database; no cut-off is given here.

Biological target: T1, Cannabinoid receptor 1 (Rattus norvegicus, UniProt P20272)
Experiment: Displacement of [3H]CP-55,940 from CB1 receptor in rat brain by scintillation counting analysis
Type: tissue-based
Details: not given

T1 sequence (P20272 whole entry): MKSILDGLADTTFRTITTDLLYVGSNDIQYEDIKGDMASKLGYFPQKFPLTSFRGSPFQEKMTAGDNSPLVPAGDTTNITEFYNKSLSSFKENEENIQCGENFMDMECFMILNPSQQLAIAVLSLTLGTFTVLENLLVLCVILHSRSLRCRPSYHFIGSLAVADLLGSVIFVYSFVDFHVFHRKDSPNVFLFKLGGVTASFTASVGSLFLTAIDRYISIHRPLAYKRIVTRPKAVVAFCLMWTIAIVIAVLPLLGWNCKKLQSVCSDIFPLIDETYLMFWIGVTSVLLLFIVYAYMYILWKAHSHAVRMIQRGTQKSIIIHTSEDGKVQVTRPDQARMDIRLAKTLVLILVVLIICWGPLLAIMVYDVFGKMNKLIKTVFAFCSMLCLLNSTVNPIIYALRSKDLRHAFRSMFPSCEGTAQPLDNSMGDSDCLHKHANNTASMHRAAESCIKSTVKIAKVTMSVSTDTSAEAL

| Compound | pKi |
| --- | --- |
| CC1=CC[C@@H]2[C@@H](C1)c1c(O)cc(C(C)(C)C(=O)O)cc1OC2(C)C | < 5.00 |
| CC1=CC[C@@H]2[C@@H](C1)c1c(O)cc(C3(C(=O)O)CCC3)cc1OC2(C)C | < 5.00 |
| CC1=CC[C@@H]2[C@@H](C1)c1c(O)cc(CC(=O)O)cc1OC2(C)C | < 5.00 |
| CCCCOC(=O)[C@H](C)c1cc(O)c2c(c1)OC(C)(C)[C@@H]1CC=C(C)C[C@@H]21 | 8.80 |

System: Rattus norvegicus
Experiment: Induction of hypothermia in Sprague-Dawley rat at 0.3 mg/kg, sc measured at 12 hrs
Type: functional, organism-based
Parameters: dose 0.3 mg/kg
Details: not given

| Compound | Activity |
| --- | --- |
| CCCCCCC(C)(C)c1cc(O)c2c(c1)OC(C)(C)[C@@H]1CC=C(C)C[C@@H]21 | Active |

System: Rattus norvegicus
Experiment: Induction of hypothermia in Sprague-Dawley rat at 0.3 mg/kg, sc after 4 hrs
Type: functional, organism-based
Parameters: dose 0.3 mg/kg
Details: not given

| Compound | Activity |
| --- | --- |
| CCCCCCC(C)(C)c1cc(O)c2c(c1)OC(C)(C)[C@@H]1CC=C(C)C[C@@H]21 | Active |

System: Rattus norvegicus
Experiment: Induction of hypothermia in sc dosed Sprague-Dawley rat measured for 6 hrs
Type: functional, organism-based
Details: not given

| Compound | Activity |
| --- | --- |
| CC1=CC[C@@H]2[C@@H](C1)c1c(O)cc(C(C)(C)C(=O)O)cc1OC2(C)C | inactive |
| CC1=CC[C@@H]2[C@@H](C1)c1c(O)cc(C3(C(=O)O)CCC3)cc1OC2(C)C | inactive |
| CC1=CC[C@@H]2[C@@H](C1)c1c(O)cc(CC(=O)O)cc1OC2(C)C | inactive |
| CCCCOC(=O)C1(c2cc(O)c3c(c2)OC(C)(C)[C@@H]2CC=C(C)C[C@@H]32)CCC1 | Dose-dependent effect |

System: Rattus norvegicus
Experiment: Induction of hypothermia in Sprague-Dawley rat at 1 mg/kg, sc up to 300 mins
Type: functional, organism-based
Parameters: dose 1 mg/kg
Details: not given

| Compound | Activity |
| --- | --- |
| CCCCOC(=O)C1(c2cc(O)c3c(c2)OC(C)(C)[C@@H]2CC=C(C)C[C@@H]32)CCC1 | inactive |

Biological target: Cannabinoid receptor 1 (Rattus norvegicus) (UniProt P20272)
Sequence (P20272 whole entry): as above
Experiment: Agonist activity at rat CB1 receptor expressed in HEK293 cells assessed as inhibition of forskolin-stimulated cAMP accumulation up to 5 uM after 30 mins
Type: functional, cell-based
Details: not given

| Compound | inhibition |
| --- | --- |
| CCCCOC(=O)[C@H](C)c1cc(O)c2c(c1)OC(C)(C)[C@@H]1CC=C(C)C[C@@H]21 | inactive |

Biological target: Cannabinoid receptor 2 (Homo sapiens, UniProt P34972)
Sequence (P34972 whole entry): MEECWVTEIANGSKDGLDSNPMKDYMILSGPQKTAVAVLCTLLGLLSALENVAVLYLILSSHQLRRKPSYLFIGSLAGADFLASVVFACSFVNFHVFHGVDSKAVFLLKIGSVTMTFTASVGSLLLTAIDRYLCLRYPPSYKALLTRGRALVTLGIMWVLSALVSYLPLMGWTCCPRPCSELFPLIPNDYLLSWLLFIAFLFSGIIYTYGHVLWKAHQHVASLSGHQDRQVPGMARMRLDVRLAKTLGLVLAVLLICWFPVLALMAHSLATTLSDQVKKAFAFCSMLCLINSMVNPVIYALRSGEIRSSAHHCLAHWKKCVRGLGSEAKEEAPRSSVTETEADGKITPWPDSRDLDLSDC
Experiment: Displacement of [3H]CP-55,940 from human CB2 receptor expressed in HEK293 cell membranes by scintillation counting analysis
Details: not given

| Compound | pKi |
| --- | --- |
| CCCCOC(=O)C1(c2cc(O)c3c(c2)OC(C)(C)[C@@H]2CC=C(C)C[C@@H]32)CCC1 | 8.52 |
| CCCCOC(=O)[C@H](C)c1cc(O)c2c(c1)OC(C)(C)[C@@H]1CC=C(C)C[C@@H]21 | 8.43 |

System: Rattus norvegicus
Experiment: Induction of hypothermia in Sprague-Dawley rat at 1 to 3 mg/kg, sc measured for 6 hrs
Type: functional
Details: dose mg/kg 1-3; route subcutaneous

| Compound | T [°C] |
| --- | --- |
| CCCCOC(=O)C1(c2cc(O)c3c(c2)OC(C)(C)[C@@H]2CC=C(C)C[C@@H]32)CCC1 | 3.6 |

Biological target: Cannabinoid receptor 2 (Mus musculus, UniProt P47936)
Sequence (P47936 whole entry): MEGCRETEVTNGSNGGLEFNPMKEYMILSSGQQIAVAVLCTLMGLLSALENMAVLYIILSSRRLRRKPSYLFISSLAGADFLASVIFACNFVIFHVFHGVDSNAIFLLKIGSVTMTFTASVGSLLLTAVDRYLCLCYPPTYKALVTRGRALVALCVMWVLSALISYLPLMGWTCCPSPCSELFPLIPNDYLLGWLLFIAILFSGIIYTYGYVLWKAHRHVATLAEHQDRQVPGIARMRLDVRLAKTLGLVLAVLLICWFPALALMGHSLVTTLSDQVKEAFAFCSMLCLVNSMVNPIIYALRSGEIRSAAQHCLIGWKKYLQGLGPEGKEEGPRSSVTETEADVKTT
Experiment: Displacement of [3H]CP-55,940 from mouse CB2 receptor expressed in HEK293 cell membranes by scintillation counting analysis
Details: not given

| Compound | pKi |
| --- | --- |
| CC1=CC[C@@H]2[C@@H](C1)c1c(O)cc(C(C)(C)C(=O)O)cc1OC2(C)C | < 5.00 |
| CC1=CC[C@@H]2[C@@H](C1)c1c(O)cc(C3(C(=O)O)CCC3)cc1OC2(C)C | < 5.00 |
| CC1=CC[C@@H]2[C@@H](C1)c1c(O)cc(CC(=O)O)cc1OC2(C)C | < 5.00 |
| CCCCOC(=O)C1(c2cc(O)c3c(c2)OC(C)(C)[C@@H]2CC=C(C)C[C@@H]32)CCC1 | 8.52 |
| CCCCOC(=O)[C@H](C)c1cc(O)c2c(c1)OC(C)(C)[C@@H]1CC=C(C)C[C@@H]21 | 8.35 |

Biological target: Cannabinoid receptor 1 (Rattus norvegicus) (UniProt P20272)
Experiment: Agonist activity at rat CB1 receptor expressed in HEK293 cells assessed as inhibition of forskolin-stimulated cAMP accumulation at 500 nM after 30 mins relative to CP-55,940
Type: functional, cell-based
Details: not given

| Compound | Emax [%] |
| --- | --- |
| CCCCOC(=O)C1(c2cc(O)c3c(c2)OC(C)(C)[C@@H]2CC=C(C)C[C@@H]32)CCC1 | 90 |

Biological target: T1, Cannabinoid receptor 1
Experiment: Agonist activity at rat CB1 receptor expressed in HEK293 cells assessed as inhibition of forskolin-stimulated cAMP accumulation after 30 mins
Type: functional, cell-based
Details: not given

| Compound | pEC50 |
| --- | --- |
| CCCCOC(=O)C1(c2cc(O)c3c(c2)OC(C)(C)[C@@H]2CC=C(C)C[C@@H]32)CCC1 | 9.40 |

System: Rattus norvegicus
Experiment: Induction of hypothermia in Sprague-Dawley rat at 0.1 to 3 mg/kg, sc measured for 6 hrs
Type: functional, organism-based
Details: not given

| Compound | Activity |
| --- | --- |
| CCCCCCC(C)(C)c1cc(O)c2c(c1)OC(C)(C)[C@@H]1CC=C(C)C[C@@H]21 | Active |
| CCCCOC(=O)[C@H](C)c1cc(O)c2c(c1)OC(C)(C)[C@@H]1CC=C(C)C[C@@H]21 | inactive |

System: Plasma
Experiment: Half life in rat plasma at 200 uM by HPLC analysis
Type: ADME, cell-free
Details: not given

| Compound | t1/2 [min] |
| --- | --- |
| CCCCOC(=O)C1(c2cc(O)c3c(c2)OC(C)(C)[C@@H]2CC=C(C)C[C@@H]32)CCC1 | 263 |
| CCCCOC(=O)[C@H](C)c1cc(O)c2c(c1)OC(C)(C)[C@@H]1CC=C(C)C[C@@H]21 | 10.5 |

System: Plasma
Experiment: Half life in mouse plasma at 200 uM by HPLC analysis
Type: ADME, cell-free
Details: not given

| Compound | t1/2 [min] |
| --- | --- |
| CCCCOC(=O)C1(c2cc(O)c3c(c2)OC(C)(C)[C@@H]2CC=C(C)C[C@@H]32)CCC1 | 36.3 |
| CCCCOC(=O)[C@H](C)c1cc(O)c2c(c1)OC(C)(C)[C@@H]1CC=C(C)C[C@@H]21 | 5.9 |

System: Mus musculus
Experiment: Analgesic activity in CD-1 mouse assessed as tail-flick withdrawal latency at 0.3 to 1 mg/kg, ip
Type: functional, organism-based
Details: not given

| Compound | Activity |
| --- | --- |
| CCCCCCC(C)(C)c1cc(O)c2c(c1)OC(C)(C)[C@@H]1CC=C(C)C[C@@H]21 | Active |

System: Rattus norvegicus
Experiment: Induction of hypothermia in Sprague-Dawley rat at 3 mg/kg, sc after 6 hrs
Type: functional, organism-based
Parameters: dose 3 mg/kg
Details: not given

| Compound | Activity |
| --- | --- |
| CCCCOC(=O)[C@H](C)c1cc(O)c2c(c1)OC(C)(C)[C@@H]1CC=C(C)C[C@@H]21 | inactive |

System: Rattus norvegicus
Experiment: Induction of hypothermia in Sprague-Dawley rat at 1 mg/kg, sc after 90 to 120 mins
Type: functional, organism-based
Parameters: dose 1 mg/kg
Details: not given

| Compound | Activity |
| --- | --- |
| CCCCOC(=O)C1(c2cc(O)c3c(c2)OC(C)(C)[C@@H]2CC=C(C)C[C@@H]32)CCC1 | Active |
